For 61 compounds, inhibition results are on record in US10111875B2, “Pyrrolopyrimidine compounds and uses thereof” (HUTCHISON MEDIPHARMA LIMITED, priority 2010, dated 2018).

A word on the inhibition: it is the share of the control response that was lost under treatment.

The target in the first assay is Recombinant human JAK1 catalytic domain (Homo sapiens (Human), UniProt P23458). The assay is described as follows: JAK1 kinase assay (Z'-LYTE Tyr 6 Peptide). The format is biochemical. Particulars: JAK1 kinase assay, 0.3 uM concentration; read-out: inhibition percentage (IR %). Here is the method: JAK1/2/3 kinase assay are performed in vitro using Kit-Tyr 6 Peptide (Invitrogen, Cat. No. PV4122). TYK2 kinase assay are performed in vitro using Z′-LYTE™ Kinase Assay Kit-Tyr 3 Peptide (Invitrogen, Cat. No. PV3192). […] All compounds are initially tested at 8 different concentrations (1 μM down to 0.0003 μM) using a 1:3 serial dilution scheme.
Recombinant human JAK1 catalytic domain, sequence (P23458 875-1153): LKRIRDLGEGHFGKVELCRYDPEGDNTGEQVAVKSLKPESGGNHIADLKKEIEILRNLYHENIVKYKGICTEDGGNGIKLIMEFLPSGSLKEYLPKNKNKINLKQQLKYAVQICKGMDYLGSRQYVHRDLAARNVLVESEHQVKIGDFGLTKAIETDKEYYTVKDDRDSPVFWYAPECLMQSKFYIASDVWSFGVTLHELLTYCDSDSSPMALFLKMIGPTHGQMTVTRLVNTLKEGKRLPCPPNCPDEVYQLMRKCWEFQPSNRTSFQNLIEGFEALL
`Cc1cc(C#N)cnc1N(C)[C@@H]1CCN(c2ncnc3[nH]ccc23)C1` [Compound 100]: the inhibition at 0.3 µM fell in the range of 20 to 50%.
As to `CN(c1ccc(NS(=O)(=O)c2cccs2)cn1)[C@@H]1CCN(c2ncnc3[nH]ccc23)C1` [Compound 214], the inhibition at 0.3 µM lay in the range of 50 to 100%.
With `N#Cc1ccc(N(C2CC2)[C@@H]2CCN(c3ncnc4[nH]ccc34)C2)nc1` [Compound 41], the inhibition at 0.3 µM fell in the range of 50 to 100%.
On the same count and under the same terms, to `CN(c1ccc(NS(=O)(=O)c2cc(F)ccc2F)cn1)[C@@H]1CCN(c2ncnc3[nH]ccc23)C1` [Compound 213] belongs 20 to 50%; to `CN(C(=O)N1CCC[C@@H]1C(N)=O)[C@@H]1CCN(c2ncnc3[nH]ccc23)C1` [Compound 35], 20 to 50%; to `CC(C)S(=O)(=O)N(C)[C@@H]1CCN(c2ncnc3[nH]ccc23)C1` [Compound 49], 50 to 100%.
`N#Cc1cnc(N[C@@H]2CCN(c3ncnc4[nH]ccc34)C2)c([N+](=O)[O-])c1` [Compound 97]: the inhibition at 0.3 µM was 50 to 100%.
For `CN(c1ccc(C(=O)N[C@H](CO)c2ccccc2)cn1)[C@@H]1CCN(c2ncnc3[nH]ccc23)C1` [Compound 174], the inhibition at 0.3 µM lay in the range of 50 to 100%.
Take `CN(c1ncnc2ccccc12)[C@@H]1CCN(c2ncnc3[nH]ccc23)C1` [Compound 80]: the inhibition at 0.3 µM lay within 50 to 100%.
For `CN(c1ccncn1)[C@@H]1CCN(c2ncnc3[nH]ccc23)C1` [Compound 154, (R)—N-(1-(7H-pyrrolo[2,3-d]pyrimidin-4-yl)pyrrolidin-3-yl)-N-methylpyrimidin-4-amine], the inhibition at 0.3 µM lay within 50 to 100%.
Regarding `CNS(=O)(=O)c1ccc(N(C)[C@@H]2CCN(c3ncnc4[nH]ccc34)C2)nc1` [Compound 239], the inhibition at 0.3 µM is 50 to 100%.
Take `CN(c1ccc(C(=O)N[C@@H]2CCC[C@H]2O)cn1)[C@@H]1CCN(c2ncnc3[nH]ccc23)C1` [Compound 194]: the inhibition at 0.3 µM was 20 to 50%.
For the compound `CN(c1ccc(C(F)(F)F)nn1)[C@@H]1CCN(c2ncnc3[nH]ccc23)C1` [Compound 62], the inhibition at 0.3 µM fell in the range of 50 to 100%.
On to `CN(c1ccc(C#N)c(Cl)n1)[C@@H]1CCN(c2ncnc3[nH]ccc23)C1` [Compound 90], for which the inhibition at 0.3 µM lay within 50 to 100%.
Same read-out and setting: to `CN(c1ccc(F)cn1)[C@@H]1CCN(c2ncnc3[nH]ccc23)C1` [Compound 66] belongs 20 to 50%; to `CN(c1ccc(NC(=O)c2cccc(F)c2)cn1)[C@@H]1CCN(c2ncnc3[nH]ccc23)C1` [Compound 226], 50 to 100%; to `CCN(c1ccc(C#N)cc1F)[C@@H]1CCN(c2ncnc3[nH]ccc23)C1` [Compound 133], 50 to 100%.
As to `Cc1cc([N+](=O)[O-])cnc1N(C)[C@@H]1CCN(c2ncnc3[nH]ccc23)C1` [Compound 75], the inhibition at 0.3 µM was in the range of 20 to 50%.
In the case of `Cc1ccc(NC(=O)c2ccc(N(C)[C@@H]3CCN(c4ncnc5[nH]ccc45)C3)nc2)cc1` [Compound 186], the inhibition at 0.3 µM fell in the range of 50 to 100%.
As for `Cc1ccc(CS(=O)(=O)Nc2ccc(N(C)[C@@H]3CCN(c4ncnc5[nH]ccc45)C3)nc2)cc1` [Compound 222], the inhibition at 0.3 µM lay in the range of 50 to 100%.
For the compound `CN(c1cccc(C#N)c1)[C@@H]1CCN(c2ncnc3[nH]ccc23)C1` [Compound 119, (R)-3-((1-(7H-pyrrolo[2,3-d]pyrimidin-4-yl)pyrrolidin-3-yl)(methyl)amino)benzonitrile], the inhibition at 0.3 µM was in the range of 50 to 100%.
`CN(c1c(F)cc(C(=O)N[C@@H](CO)c2ccccc2)cc1F)[C@@H]1CCN(c2ncnc3[nH]ccc23)C1` [Compound 208]: the inhibition at 0.3 µM lay in the range of 50 to 100%.
In the case of `CN(C(=O)c1cccnc1)[C@@H]1CCN(c2ncnc3[nH]ccc23)C1` [Compound 5], the inhibition at 0.3 µM was in the range of 20 to 50%.
The same measure, in the same setting: the same measure for `CN(C(=O)c1ccc(N(C)[C@@H]2CCN(c3ncnc4[nH]ccc34)C2)nc1)c1ccccc1` [Compound 197]: 50 to 100%.
Consider `CN(c1ccc(C(=O)Nc2cccc(Cl)c2)cc1F)[C@@H]1CCN(c2ncnc3[nH]ccc23)C1` [Compound 185], for which the inhibition at 0.3 µM fell in the range of 50 to 100%.
For the compound `CN(c1ccc(C(=O)NC2CC2)cn1)[C@@H]1CCN(c2ncnc3[nH]ccc23)C1` [Compound 171, (R)-6-((1-(7H-pyrrolo[2,3-d]pyrimidin-4-yl)pyrrolidin-3-yl)(methyl)amino)-N-cyclopropylnicotinamide], the inhibition at 0.3 µM was 50 to 100%.
With `CN(c1ccnc(C#N)c1)[C@@H]1CCN(c2ncnc3[nH]ccc23)C1` [Compound 121], the inhibition at 0.3 µM lay in the range of 50 to 100%.
For `CN(c1ccc(NS(=O)(=O)Cc2ccccc2F)cn1)[C@@H]1CCN(c2ncnc3[nH]ccc23)C1` [Compound 219], the inhibition at 0.3 µM fell in the range of 50 to 100%.
Consider `COc1cc2ncnc(N(C)[C@@H]3CCN(c4ncnc5[nH]ccc45)C3)c2cc1OC` [Compound 86], for which the inhibition at 0.3 µM lay within 50 to 100%.
In the case of `CN(c1cnc(NCCO)cn1)[C@@H]1CCN(c2ncnc3[nH]ccc23)C1` [Compound 135], the inhibition at 0.3 µM was in the range of 20 to 50%.
On the same count and under the same terms, to `C#CCN(c1c(F)cc(C#N)cc1F)[C@@H]1CCN(c2ncnc3[nH]ccc23)C1` [Compound 129] belongs 50 to 100%; to `COc1ccc(S(=O)(=O)N(C)[C@@H]2CCN(c3ncnc4[nH]ccc34)C2)cc1` [Compound 13], 20 to 50%.
Still for that read-out and setting: to `CN(c1cnc(C#N)cn1)[C@@H]1CCN(c2ncnc3[nH]ccc23)C1` [Compound 84] belongs 50 to 100%; to `N#CCN(C1CCC1)[C@@H]1CCN(c2ncnc3[nH]ccc23)C1` [Compound 52], 50 to 100%; to `CN(c1ccc(S(=O)(=O)NC[C@@H]2CCCO2)cn1)[C@@H]1CCN(c2ncnc3[nH]ccc23)C1` [Compound 257], 20 to 50%.
On to `CN(c1ccc(C#N)c(Br)c1)[C@@H]1CCN(c2ncnc3[nH]ccc23)C1` [Compound 114], for which the inhibition at 0.3 µM lay within 50 to 100%.
In the case of `CN([C@@H]1CCN(c2ncnc3[nH]ccc23)C1)S(=O)(=O)N1CCCC1` [Compound 15], the inhibition at 0.3 µM lay in the range of 50 to 100%.
As for `CCCN(c1ccc(C#N)cn1)[C@@H]1CCN(c2ncnc3[nH]ccc23)C1` [Compound 98], the inhibition at 0.3 µM lay within 50 to 100%.
`CN(c1ccccn1)[C@@H]1CCN(c2ncnc3[nH]ccc23)C1` [Compound 156]: the inhibition at 0.3 µM is 50 to 100%.
On to `C#CCN(C1CCOC1)[C@@H]1CCN(c2ncnc3[nH]ccc23)C1` (stereo partly shown) [Compound 56], for which the inhibition at 0.3 µM lay within 50 to 100%.
In the case of `CN(C)S(=O)(=O)N(C)[C@@H]1CCN(c2ncnc3[nH]ccc23)C1` [Compound 14], the inhibition at 0.3 µM lay within 50 to 100%.
For `CN(c1ccc(C(=O)N[C@@H]2c3ccccc3C[C@@H]2O)cc1F)[C@@H]1CCN(c2ncnc3[nH]ccc23)C1` [Compound 203], the inhibition at 0.3 µM fell in the range of 20 to 50%.
Take `CN(c1ccc(-c2cn[nH]c2)cn1)[C@@H]1CCN(c2ncnc3[nH]ccc23)C1` [Compound 150]: the inhibition at 0.3 µM fell in the range of 50 to 100%.
Take `CN(c1ccc(C(=O)N[C@@H](CO)c2ccccc2)cc1F)[C@@H]1CCN(c2ncnc3[nH]ccc23)C1` [Compound 179]: the inhibition at 0.3 µM was 50 to 100%.
Same read-out and setting: the same measure for `CN(c1ccc(S(=O)(=O)N2CCOCC2)cn1)[C@@H]1CCN(c2ncnc3[nH]ccc23)C1` [Compound 252]: 50 to 100%; for `CN(C(=O)Cc1ccc(C#N)cc1)[C@@H]1CCN(c2ncnc3[nH]ccc23)C1` [Compound 20]: 50 to 100%; for `CN(c1ccc(C#N)cn1)[C@@H]1CCN(c2ccnc3[nH]ccc23)C1` [Compound 92]: 50 to 100%.
With `CN(c1ccc(C#N)cc1Br)[C@@H]1CCN(c2ncnc3[nH]ccc23)C1` [Compound 115], the inhibition at 0.3 µM fell in the range of 50 to 100%.
As for `C#CCN(C)[C@@H]1CCN(c2ncnc3[nH]ccc23)C1` [Compound 65], the inhibition at 0.3 µM was 20 to 50%.
On to `CN(c1ccc(C(=O)NCc2ccccc2)cn1)[C@@H]1CCN(c2ncnc3[nH]ccc23)C1` [Compound 172], for which the inhibition at 0.3 µM fell in the range of 20 to 50%.
For the compound `CN(c1ccc(C(=O)NC2c3ccccc3CC2O)cc1F)[C@@H]1CCN(c2ncnc3[nH]ccc23)C1` (stereo partly shown) [Compound 184], the inhibition at 0.3 µM lay within 50 to 100%.
Same read-out and setting: to `CN(c1ccc(C(=O)NC(CO)c2ccc(Cl)cc2)cc1F)[C@@H]1CCN(c2ncnc3[nH]ccc23)C1` (stereo partly shown) [Compound 201] belongs 50 to 100%; to `CN(c1ccc(S(C)(=O)=O)cc1)[C@@H]1CCN(c2ncnc3[nH]ccc23)C1` [Compound 120, (R)—N-methyl-N-(4-(methylsulfonyl)phenyl)-1-(7H-pyrrolo[2,3-d]pyrimidin-4-yl)pyrrolidin-3-amine], 20 to 50%; to `C#CCN(c1ccc(C#N)cc1)[C@@H]1CCN(c2ncnc3[nH]ccc23)C1` [Compound 131], 50 to 100%.
Consider `CN(c1nc(Cl)nc2ccccc12)[C@@H]1CCN(c2ncnc3[nH]ccc23)C1` [Compound 79], for which the inhibition at 0.3 µM was 50 to 100%.
Consider `CN(c1ccc(C#N)cc1N)[C@@H]1CCN(c2ncnc3[nH]ccc23)C1` [Compound 166, (R)-4-((1-(7H-pyrrolo[2,3-d]pyrimidin-4-yl)pyrrolidin-3-yl)(methyl)amino)-3-aminobenzonitrile], for which the inhibition at 0.3 µM fell in the range of 20 to 50%.
Take `CN(c1ncc(C#N)cc1F)[C@@H]1CCN(c2ncnc3[nH]ccc23)C1` [Compound 158]: the inhibition at 0.3 µM is 50 to 100%.
As for `CN(c1ccc(Cl)cn1)[C@@H]1CCN(c2ncnc3[nH]ccc23)C1` [Compound 67], the inhibition at 0.3 µM fell in the range of 50 to 100%.
`COCCNS(=O)(=O)c1ccc(N(C)[C@@H]2CCN(c3ncnc4[nH]ccc34)C2)nc1` [Compound 237]: the inhibition at 0.3 µM is 50 to 100%.

The same assay, now with this note: read-out: inhibition percentage (IR %).
On to `CN(c1ccc(C#N)c(Cl)c1)[C@@H]1CCN(c2ncnc3[nH]ccc23)C1` [Compound 116], for which the inhibition at 0.3 µM fell in the range of 20 to 50%.
Take `CN(c1ccc(C(=O)O)cn1)[C@@H]1CCN(c2ncnc3[nH]ccc23)C1` [Compound 170, (R)-6-((1-(7H-pyrrolo[2,3-d]pyrimidin-4-yl)pyrrolidin-3-yl)(methyl)amino)nicotinic acid]: the inhibition at 0.3 µM fell in the range of 50 to 100%.
